Test system: Human subcutaneous adipocytes
Assay: Promotion of fat degradation (lipolysis) in human adipocytes, free glycerol in culture supernatant
Type: cell-based
Conditions: 30 μM test substance, 3 hours incubation at 37° C., versus 1% (v/v) DMSO control; Lipolysis Assay Kit; FIG. 1
Experimental: Human subcutaneous adipocytes (Zen-Bio, Inc.) plated onto a 96-well plate was obtained and pre-cultivated under a 5% CO2 atmosphere at 37° C. for 5 days in D-MEM/Ham's F12 Medium (1:1, v/v) containing 3% (v/v) fetal bovine serum, 15 mM HEPES (pH 7.4), 33 μM biotin, 17 μM pantothenate, 100 nM human insulin, 1 μM dexamethasone, 100 U/mL penicillin, 100 μg/mL streptomycin and 0.25 μg/mL amphotericin B. Then, an astaxanthin free form (Wako Pure Chemical Industries, Ltd.: purity 94% or more) and the astaxanthin monoester obtained in Preparation Example 1 were dissolved in dimethyl sulfoxide (DMSO) to prepare stock solutions at a concentration of 3 mM, respectively. The stock solutions were diluted to 30 μM with LIP-2 Assay Buffer (Zen-Bio, Inc.) to prepare test solutions. As a control, 1% (v/v) DMSO solution which was diluted with LIP-2 Assay Buffer was used. Each of the wells was washed with Wash Buffer (Zen-Bio, Inc.) and the test solutions were added to the wells. These wells were incubated under a 5% CO2 atmosphere at 37° C. for 3 hours. After the incubation, the amount of free glycerol in the culture supernatant was measured using a Lipolysis Assay Kit (Zen-Bio, Inc.). […]

Compound | percentage of fat degradation promoted, (A/B)×100(%), amount of free glycerol relative to control
CC1=C(/C=C/C(C)=C/C=C/C(C)=C/C=C/C=C(C)/C=C/C=C(C)/C=C/C2=C(C)C(=O)[C@@H](O)CC2(C)C)C(C)(C)C[C@H](O)C1=O [astaxanthin] | significantly increased
astaxanthin monoester | significantly increased

Source: patent publication US20090018210A1, “A Method for Promoting Fat Degradation” (YAMAHA HATSUDOKI KABUSHIKI KAISHA, priority 2007, published 2009)
